Measured values from patent US12215067B2, “Chemical compounds targeting the eye and use thereof in the treatment of eye diseases” (BIOPHYTIS, priority 2019, dated 2025).
Read-outs that look alike come from different tables or passages of the source.

How the values were obtained:
[1] = Pharmacokinetic study via oral administration in mice, plasma concentrations; format: in vivo, mice C57BL/6
Experimental: (§1) The pharmacokinetic study of the chemical compounds (C) following the oral administration thereof was conducted using mice C57BL/6 (January, 53940 The Genest Saint Isle, France). The chemical compounds derived from norbixin (C) were administered at a dose of 50 mg/kg of body weight. After administration, the blood was sampled at the tail at t=0.25 h; 0.5 h; 1 h; 3 h; 6 h and 8 h. The blood samples were centrifuged and the plasmas taken. The dosage of the plasma samples made it possible to determine pharmacokinetic parameters, namely Cmax, which corresponds to the maximum concentration observed after the administration of the molecule, Tmax which is the time required to reach maximum concentration after administration of the molecule and the AUC: the area under the curve which corresponds to the plasma exposure (FIG. 2).
(§2) The LC-MSMS analysis is carried out with a HPLC 1200 Infinity chain (Agilent Technologies, Santa-Clara, United States), a UV detector and a mass spectrometer QQQ6420 (Agilent Technologies Santa-Clara, United States). The injection volume is 5 μL. The chemical compounds C are eluted on an inverse phase column C18 (2.1*50 mm, particles 3 μm; Ace-C18-Excel, AIT) with a gradient of acetonitrile and water (containing 0.1% formic acid) and a flow rate of 0.3 mL/min. The conditions of the gradient can change according to the chemical compound C analyzed. The UV detector analyzes at 460 nm and the mass spectrometer analyzed in Mode MRM—Positive.
(§3) Table 2 discloses the pharmacokinetic results of the chemical compounds C following the administration p.o. 50 mg/kg in D-α-Tocopheryl polyethylene glycol 1000 succinate (VitE-TPGS) 20% in a sodium bicarbonate buffer (0.1M).

[2] = Pharmacokinetic study via oral administration in mice, ocular concentrations; format: in vivo, mice C57BL/6; details: for Tmax: C57BL/6, mouse, eye, po; for Tmax / Eye CMax: mice, p.o. 50 mg/kg in VitE-TPGS 20% in sodium bicarbonate buffer (0.1M); for Eye Exposure 50 mg/kg p.o. AUC: Table 3, repeats the eye exposure of Table 2
Experimental: as §1
In parallel, the ocular concentrations of the chemical compounds derived from norbixin (C) were dosed in the following way (FIG. 1): both eyes of each mouse were taken in Precellys tubes and stored at −80° C. until the time of dosing. The eyes are then ground in the Precellys tubes with a bench homogenizer, Fast-prep (Fischer Scientific, Hampton, United States) in a mixture of organic solvents, in a first step with 500 μL of chloroform/methanol (1/1, v/v) then 500 μL of chloroform/dichloromethane (1/1, v/v). The supernatants are recovered at each step and transferred to a 96-well plate of 2 mL.
For the quantification of the chemical compounds C, a calibration curve is carried out with 8 standards (5 to 5,000 ng/mL) in the same organic solvent mixtures and transferred (100 μL) to the 96-well plate of 2 mL.
The supernatants and standards are evaporated in a EZ2 (Genevac, Ipswich, United Kingdom), without heating, then taken with 100 μL of DMSO/methanol (20:80, v/v) before being transferred to a 96-well plate of 200 μL.
as §2, §3

[3] = system: primary cultures of RPE of adult pigs; assay: In vitro photoprotection of RPE cells illuminated with blue light in the presence of A2E; format: cell-based, pig; details: Sus scrofa, RPE, A2E 30 μM, survival 24 h after illumination; for viability at 5 µM: 5 μM compound; for viability at 10 µM: 10 μM compound; for viability at 20 µM: 20 μM compound
From the text: In addition to better distribution in the target-tissue, selecting new compounds must also be based on good photo-protective activity that limits the loss of the cells of the RPE and thus reducing the retinal degeneration observed during the AMD and other degenerative diseases such as Retinitis pigmentosa and Stargardt's disease. At the cellular level, on cultures of cells the RPE coming from pig retina, Fontaine et al. (2016) have shown that a treatment with norbixin (BIO201) protects the cells of the RPE against apoptosis following an illumination in the presence of A2E (80% survival 24 h after exposure). This same screening test according to the percentage of photoprotection was used so as to determine its modulation by and the chemical compounds derived from norbixin (C) object of the present invention in comparison with the photo-protective effect of norbixin and characterize these modulations from a statical standpoint.
The test in vitro described hereinabove and intended to study the photo-protective effect of norbixin was used so as to quantify the photo-protective effects of the various chemical compounds derived from norbixin (C) on the cells of the RPE illuminated with blue light in the presence of A2E (FIG. 3). The photo-protective effect of the molecules was evaluated in a phototoxicity cellular model induced by treatment by A2E followed by an illumination with blue light. The term “blue radiation” means the radiation corresponding to the blue band of the visible light spectrum, i.e. of a wavelength comprised between 435 and 490 nm. This model uses primary cultures of RPE of adult pigs. The cell survival is quantified thanks to a test of cellular viability. At −48 h the compounds to be tested (in solution at 5 mM in the DMSO) are added to obtain the final concentrations of 1 to 20 μM) then at −19 h of the A2E (final concentration 30 μM) and the cells (time 0 h) are illuminated. 24 h after the survival of the cells is measured. The acquisition of images, as well as the processing thereof, are carried out using a fluorescence microscope controlled by the Metamorph software and a dedicated quantification program. The experiments are conducted on a 96-well microplate in quadruplicate and the experiment is reproduced at least four times. The results are expressed in the form of a ratio representing the number of living cells in the wells treated by the molecules to be tested, divided by the number of living cells in the controlled wells (treated by the dilution medium without A2E). This test made it possible hereinabove to reveal the photo-protective activity of norbixin (Fontaine et al. 2016).

[4] = C57BL/6, mouse, in vivo, po, 50 mg/kg

Row | Cmax [1, 4] [ng/mL] | Plasma Exposure [1, 4] [µg·h/mL] | Tmax [1, 4] [min] | Tmax [2] [min] | Eye Exposure 50 mg/kg p.o. AUC [2] [ng · h/eye] | Eye CMax [2] [ng/eye] | Structure (SMILES) | viability at 5 µM [3] [%] | viability at 10 µM [3] [%] | viability at 20 µM [3] [%] | Cmax ([1]; C57BL/6, mouse, in vivo, po, mice, p.o. 50 mg/kg in VitE-TPGS 20% in sodium bicarbonate buffer (0.1M), read-out: Plasma CMax) [ng/mL] | Tmax ([1]; C57BL/6, mouse, in vivo, po, mice, p.o. 50 mg/kg in VitE-TPGS 20% in sodium bicarbonate buffer (0.1M), read-out: Plasma TMax) [min] | Plasma Exposure ([1]; mice, p.o. 50 mg/kg in VitE-TPGS 20% in sodium bicarbonate buffer (0.1M), area under the curve) [µg·h/mL]
1 | 37900 | 342.68 | 60 | 60 | 452.0 | 53.1 | CC(=C/C=C/C(C)=C/C=C/C=C(C)/C=C/C=C(C)/C=C/C(=O)N1CCC(O)C1)/C=C/C(=O)O (stereo in doubt) [C9, 1-[(S)-3-hydroxypyrrolidinamido](2E,4E,6E,8E,10E,12E,14E,16Z,18E)-4,8,13,17-tetramethylicosa-2,4,6,8,10,12,14,16,18-nonaenedioate] | 22.1 | 32 | 63.7 |  |  | 
2 | 35900 | 190 | 60 | 60 | 238.4 | 47.7 | CC(=C/C=C/C(C)=C/C=C/C=C(C)/C=C/C=C(C)/C=C/C(=O)N1CCC(O)C1)/C=C/C(=O)O (stereo in doubt) [C11, 1-[(R)-3-hydroxypyrrolidinamido](2E,4E,6E,8E,10E,12E,14E,16Z,18E)-4,8,13,17-tetramethylicosa-2,4,6,8,10,12,14,16,18-nonaenedioate] | 21.1 | 39.3 | 63.4 |  |  | 
3 | 3950 | 10.81 | 30 | 30 | 23.1 | 3.9 | CC(=C/C=C/C(C)=C/C=C/C=C(C)/C=C/C=C(C)/C=C/C(=O)N1CCSCC1)/C=C/C(=O)O [C6] |  | 60.6 | 19.1 |  |  | 
4 | 6890 | 17.29 | 30 | 30 | 18.5 | 7 | CC(=C/C=C/C(C)=C/C=C/C=C(C)/C=C/C=C(C)/C=C/C(=O)N1CCCC1)/C=C/C(=O)O [C7, 1-pyrrolidinamido-(2E,4E,6E,8E,10E,12E,14E,16Z,18E)-4,8,13,17-tetramethylicosa-2,4,6,8,10,12,14,16,18-nonaenedioate] | 5.2 | 52.8 |  |  |  | 
5 | 59800 | 173.74 | 30 | 60 | 472.4 | 56.8 | CC(=C/C=C/C(C)=C/C=C/C=C(C)/C=C/C=C(C)/C=C/C(=O)NCCCN1CCOCC1)/C=C/C(=O)O [C8] | 28.6 | 33.4 | 75.2 |  |  | 

The next lines start with the compound.

Row | Structure (SMILES) | Cmax [1, 4] [ng/mL] | Plasma Exposure [1, 4] [µg·h/mL] | Tmax [1, 4] [min] | Tmax [2] [min] | Eye Exposure 50 mg/kg p.o. AUC [2] [ng · h/eye] | Eye CMax [2] [ng/eye] | viability at 5 µM [3] [%] | viability at 10 µM [3] [%] | viability at 20 µM [3] [%] | Cmax ([1]; C57BL/6, mouse, in vivo, po, mice, p.o. 50 mg/kg in VitE-TPGS 20% in sodium bicarbonate buffer (0.1M), read-out: Plasma CMax) [ng/mL] | Tmax ([1]; C57BL/6, mouse, in vivo, po, mice, p.o. 50 mg/kg in VitE-TPGS 20% in sodium bicarbonate buffer (0.1M), read-out: Plasma TMax) [min] | Plasma Exposure ([1]; mice, p.o. 50 mg/kg in VitE-TPGS 20% in sodium bicarbonate buffer (0.1M), area under the curve) [µg·h/mL]
6 | COCCNC(=O)/C=C/C(C)=C/C=C/C(C)=C/C=C/C=C(C)/C=C/C=C(C)\C=C\C(=O)O [C1, 1-[2-methoxyethanamido](2E,4E,6E,8E,10E,12E,14E,16Z,18E)-4,8,13,17-tetramethylicosa-2,4,6,8,10,12,14,16,18-nonaenedioate] | 18700 | 52.66 | 30 | 30 | 26.6 | 10.7 | 55 | 67.7 | 77.8 |  |  | 
7 | CC(=C/C=C/C(C)=C/C=C/C=C(C)/C=C/C=C(C)/C=C/C(=O)N1CCOCC1)/C=C/C(=O)O [C2, 1-[1,4-oxazinamido](2E,4E,6E,8E,10E,12E,14E,16Z,18E)-4,8,13,17-tetramethylicosa-2,4,6,8,10,12,14,16,18-nonaenedioate] |  |  |  | 30 | 186.5 | 41 | 33.9 | 22.3 | 49.1 | 34000 | 30 | 176.2
8 | CC(=C/C=C/C(C)=C/C=C/C=C(C)/C=C/C=C(C)/C=C/C(=O)N1CCCCC1)/C=C/C(=O)O [C3, 1-[piperidinamido](2E,4E,6E,8E,10E,12E,14E,16Z,18E)-4,8,13,17-tetramethylicosa-2,4,6,8,10,12,14,16,18-nonaenedioate] | 4050 | 10.37 | 30 | 30 | 19.1 | 5.1 | 11.3 | 68.1 | 45.1 |  |  | 
9 | CC(=C/C=C/C(C)=C/C=C/C=C(C)/C=C/C=C(C)/C=C/C(=O)NCCO)/C=C/C(=O)O [C4, 1-[2-hydroxyethanamido](2E,4E,6E,8E,10E,12E,14E,16Z,18E)-4,8,13,17-tetramethylicosa-2,4,6,8,10,12,14,16,18-nonaenedioate] | 57100 | 208.6 | 60 | 30 | 30.0 | 10.2 | 16.4 | 36 | 67.2 |  |  | 
10 | CC(=C/C=C/C(C)=C/C=C/C=C(C)/C=C/C=C(C)/C=C/C(=O)N1CCCOCC1)/C=C/C(=O)O [C5, 1[1,4-oxazepanamido](2E,4E,6E,8E,10E,12E,14E,16Z,18E)-4,8,13,17-tetramethylicosa-2,4,6,8,10,12,14,16,18-nonaenedioate] | 37700 | 299.9 | 60 | 30 | 188.7 | 31.4 | 11.3 | 25.6 | 36 |  |  | 
